From ChEMBL document CHEMBL1127097, “Tetrazole amino acids as competitive NMDA antagonists” (Bioorg Med Chem Lett, 1993)

Experiments:
Mus musculus = test: Minimum effective dose tested by ip administration for its ability to block NMDA induced lethality in mice.; assay type: functional; conditions: read-out: MED
[1] = target: Glutamate [NMDA] receptor; test: Tested in vitro for the affinity against NMDA receptor by examining its ability to inhibit [3H]-CGS-19,755 binding; assay type: protein-complex assay
[2] = tested on: Glutamate [NMDA] receptor; test: Tested in vitro for the affinity against NMDA receptor in a cortical wedge assay; A- Compound acted as […]; assay type: functional
[3] = target: Glutamate [NMDA] receptor; test: Tested in vitro for the affinity against NMDA receptor in a cortical wedge assay; assay type: protein-complex assay
[4] = tested on: Glutamate [NMDA] receptor; test: Tested in vitro for the affinity against NMDA receptor in a cortical wedge assay; A- compound acts as antagonist; assay type: functional

Row | Structure (SMILES) | minimal effective dose (Mus musculus) | IC50 [1] | IC50 [2] | IC50 [3] | IC50 [4]
1 | N[C@@H](CCc1nnn[nH]1)C(=O)O | > 160 mg/kg | 1.6 µM | Agonist |  | 
2 | O=C(O)C1CN(CCCc2nnn[nH]2)CCN1 (centres undefined) | 40 mg/kg | 3.15 µM |  | 16.3 µM | 
3 | O=C(O)C1CN(Cc2nn[nH]n2)CCN1 (centres undefined) | > 80 mg/kg | 1.67 µM |  | 8.2 µM | 
4 | O=C(O)C1CN(CCc2nnn[nH]2)CCN1 (centres undefined) | 160 mg/kg | 0.781 µM |  | 4.7 µM | 
5 | N[C@H](Cc1nnn[nH]1)C(=O)O | > 160 mg/kg | 0.685 µM |  | > 100 µM | 
6 | N[C@H](CCc1nnn[nH]1)C(=O)O | > 160 mg/kg | 0.925 µM |  | 31.6 µM | 
7 | O=C(O)[C@H]1C[C@@H](Cc2nnn[nH]2)CCN1 | 5 mg/kg | 0.107 µM |  | 4.2 µM | 
8 | O=C(O)C1CN(CCCP(=O)(O)O)CCN1 (centres undefined) | 2.5 mg/kg | 0.22 µM |  | 0.6 µM | 
9 | N[C@H](CCCCCP(=O)(O)O)C(=O)O | 160 mg/kg | 0.461 µM |  | 11.1 µM | 
10 | O=C(O)C1CN(CCCCc2nnn[nH]2)CCN1 (centres undefined) | > 80 mg/kg | > 10 µM |  |  | 
11 | N[C@@H](Cc1nnn[nH]1)C(=O)O | > 160 mg/kg | 0.639 µM |  | > 100 µM | 
12 | NC(CCCCCc1nnn[nH]1)C(=O)O (centres undefined) | > 160 mg/kg | > 10 µM |  | > 100 µM | 
13 | Cl.NC(CCCc1nnn[nH]1)C(=O)O (centres undefined) | > 160 mg/kg | 1.05 µM |  |  | Antagonist
14 | Cl.NC(CCCCc1nnn[nH]1)C(=O)O (centres undefined) | > 160 mg/kg | 10 µM |  |  | Antagonist
15 | Cl.NC(CCCCCCc1nnn[nH]1)C(=O)O (centres undefined) | > 160 mg/kg | > 10 µM |  | > 100 µM | 
16 | N[C@H](CCCP(=O)(O)O)C(=O)O | 160 mg/kg | 0.177 µM |  | 3.7 µM | 
17 | O=C(O)[C@@H]1C[C@H](CP(=O)(O)O)CCN1 (single isomer, unassigned) [SELFOTEL] |  | 0.054 µM |  | 1.6 µM | 
